Where a name gives a salt, the structure may show the parent alone.

ROCK2, sequence (O75116 whole entry, species assumed): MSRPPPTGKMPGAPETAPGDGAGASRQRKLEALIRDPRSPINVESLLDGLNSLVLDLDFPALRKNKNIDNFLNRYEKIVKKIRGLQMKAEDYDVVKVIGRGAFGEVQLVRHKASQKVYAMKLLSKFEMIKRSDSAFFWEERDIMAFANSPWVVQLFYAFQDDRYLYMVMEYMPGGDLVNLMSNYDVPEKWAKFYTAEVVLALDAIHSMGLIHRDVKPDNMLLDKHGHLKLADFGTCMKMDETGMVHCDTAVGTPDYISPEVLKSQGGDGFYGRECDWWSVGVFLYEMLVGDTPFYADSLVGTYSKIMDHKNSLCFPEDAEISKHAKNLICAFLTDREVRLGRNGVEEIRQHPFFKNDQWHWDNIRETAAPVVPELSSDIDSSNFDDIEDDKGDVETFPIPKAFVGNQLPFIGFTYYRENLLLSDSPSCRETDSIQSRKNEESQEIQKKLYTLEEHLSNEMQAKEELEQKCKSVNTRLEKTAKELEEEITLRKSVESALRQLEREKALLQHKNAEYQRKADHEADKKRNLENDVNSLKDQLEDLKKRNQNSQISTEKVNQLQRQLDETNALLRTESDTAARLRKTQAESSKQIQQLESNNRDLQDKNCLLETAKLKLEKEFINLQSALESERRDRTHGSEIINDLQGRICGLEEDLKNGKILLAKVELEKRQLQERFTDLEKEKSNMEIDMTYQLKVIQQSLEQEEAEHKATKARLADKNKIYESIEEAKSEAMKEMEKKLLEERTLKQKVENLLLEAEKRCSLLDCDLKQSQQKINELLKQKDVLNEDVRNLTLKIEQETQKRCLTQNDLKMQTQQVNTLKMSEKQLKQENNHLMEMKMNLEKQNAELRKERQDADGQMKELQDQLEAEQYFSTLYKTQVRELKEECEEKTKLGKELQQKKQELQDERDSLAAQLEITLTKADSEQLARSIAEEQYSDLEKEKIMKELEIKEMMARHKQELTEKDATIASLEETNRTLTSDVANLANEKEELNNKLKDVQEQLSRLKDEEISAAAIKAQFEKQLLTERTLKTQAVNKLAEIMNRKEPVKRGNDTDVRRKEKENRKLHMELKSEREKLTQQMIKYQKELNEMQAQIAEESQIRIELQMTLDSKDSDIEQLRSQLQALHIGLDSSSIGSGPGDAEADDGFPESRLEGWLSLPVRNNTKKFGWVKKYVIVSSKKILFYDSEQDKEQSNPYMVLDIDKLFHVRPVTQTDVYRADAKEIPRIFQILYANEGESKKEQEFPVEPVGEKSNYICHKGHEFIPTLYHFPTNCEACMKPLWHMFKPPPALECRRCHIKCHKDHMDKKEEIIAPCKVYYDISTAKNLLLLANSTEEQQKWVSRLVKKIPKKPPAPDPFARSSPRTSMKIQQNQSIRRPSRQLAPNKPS

The target in the experiment is ROCK2 (Homo sapiens, UniProt O75116). In words: ROCK2 kinase inhibition assay (Caliper LABCHIP, FITC peptide substrate). Format: biochemical. To be noted: 5 μM ATP, 1.5 μM peptide substrate; value ranges. Put shortly:
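Dose-response curves gave IC50 from inhibition of peptide phosphorylation, measured by LabChip separation after EDTA stop. Reactions used 1.5 μM FITC-labelled peptide, 5 μM ATP, 20 mM HEPES pH 7.5 with MgCl2, Brij-35, DTT, and under 2% DMSO.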
The term IC50 denotes the concentration that inhibits the measured activity by half. Low values mean higher potency, high ones lower potency. On to `COc1cccc(C(CO)N2CCN(c3ccc(-c4cn[nH]c4)c(C)c3)C2=O)c1` (single isomer, unassigned) [Example 165, 1-(2-hydroxy-1-(3-methoxy-phenyl)ethyl)-3-(3-methyl-4-(1H-pyrazol-4-yl)phenyl) imidazolidin-2-one], for which the IC50 is 2.1 to 20 nM.
Next, `COc1cc(CN2C(=O)N(c3ccc(-c4cn[nH]c4)cc3)CC2(C)C)ccc1F` [Example 140, 1-(4-(1H-pyrazol-4-yl)phenyl)-3-(4-fluoro-3-methoxy-benzyl)-4,4-dimethyl-imidazolidin-2-one]: 2.1 to 20 nM; `COc1cccc(CN2C(=O)N(c3ccc(-c4cn[nH]c4)c(OC)c3)CC2CO)c1` (single isomer, unassigned) [Example 134, 4-(hydroxy-methyl)-1-(3-methoxy-4-(1H-pyrazol-4-yl)phenyl)-3-(3-methoxy-benzyl) imidazolidin-2-one]: 200 to 2000 nM; `O=C1CN(c2ccc(-c3cn[nH]c3)cc2)C(=O)N1Cc1cccc(F)c1` [Example 114, 1-(4-(1H-pyrazol-4-yl)phenyl)-3-(3-fluoro-benzyl)imidazolidine-2,4-dione]: 20.1 to 200 nM.
In turn, `CCOc1cccc(C(C)n2ccn(-c3ccc(-c4cn[nH]c4)c(CC)n3)c2=O)c1` (single isomer, unassigned) [Example 365, 1-(1-(3-ethoxyphenyl)ethyl)-3-(6-ethyl-5-(1H-pyrazol-4-yl)pyridin-2-yl)-1H-imidazol-2(3H)-one] registered an IC50 of 200 to 2000 nM.
Next, `COc1nc(N2CCN(Cc3cc(F)cc(F)c3)C2=O)ccc1-c1cn[nH]c1` [Example 247, 1-(3,5-difluorobenzyl)-3-(6-methoxy-5-(1H-pyrazol-4-yl)pyridin-2-yl)imidazolidin-2-one]: < 2 nM.
As for `COc1cccc(Cn2ccn(-c3ccc(-c4cn[nH]c4)c(C)n3)c2=O)c1` [Example 187, 1-(3-methoxy-benzyl)-3-(6-methyl-5-(1H-pyrazol-4-yl)pyridin-2-yl)-1H-imidazol-2(3H)-one], the IC50 was in the range of 2.1 to 20 nM.
In turn, `CCc1cc(N2CCN(CCc3cccc(OC)c3)C2=O)ccc1-c1cn[nH]c1` [Example 27, 1-(3-Ethyl-4-(1H-pyrazol-4-yl)phenyl)-3-(3-methoxyphenethyl)imidazolidin-2-one, TFA] came in with an IC50 of 200 to 2000 nM.
With `CCc1cc(N2CCN([C@H](C)c3cccc(OC)c3)C2=O)ccc1-c1cn[nH]c1` [Example 272, (R)-1-(3-ethyl-4-(1H-pyrazol-4-yl)phenyl)-3-(1-(3-methoxyphenyl)ethyl)imidazolidin-2-one], the IC50 was 2.1 to 20 nM.
`COc1cccc(C(C)N2CCN(c3ccc(-c4cn[nH]c4)cn3)C2=O)c1` (single isomer, unassigned) [Example 460, 1-(5-(1H-pyrazol-4-yl)pyridin-2-yl)-3-(1-(3-methoxyphenyl)ethyl)imidazolidin-2-one]: the IC50 is < 2 nM.
`CCC1CN(c2ccc(-c3cn[nH]c3)cc2)C(=O)N1Cc1cc(F)cc(OC)c1` (centres unmarked) [Example 176, 1-(4-(1H-pyrazol-4-yl)phenyl)-4-ethyl-3-(3-fluoro-5-methoxy-benzyl) imidazolidin-2-one]: the IC50 was < 2 nM.
The molecule `COc1cc(F)cc(CN2CCN(c3cc(C)c(-c4cn[nH]c4)cn3)C2=O)c1` [Example 464, 1-(3-fluoro-5-methoxybenzyl)-3-(4-methyl-5-(1H-pyrazol-4-yl)pyridin-2-yl)imidazolidin-2-one] had an IC50 of 20.1 to 200 nM.
On to `COc1ccc(F)c(CN2CCN(c3ccc(-c4cn[nH]c4)c(F)c3)C2=O)c1` [Example 426, 1-(3-fluoro-4-(1H-pyrazol-4-yl)phenyl)-3-(2-fluoro-5-methoxybenzyl)imidazolidin-2-one], for which the IC50 lay within 2.1 to 20 nM.
Take `CC(C)COc1cccc(CN2CCN(c3ccc(-c4cn[nH]c4)c(F)c3)C2=O)c1` [Example 443, 1-(3-fluoro-4-(1H-pyrazol-4-yl)phenyl)-3-(3-isobutoxybenzyl)imidazolidin-2-one]: the 50% inhibitory concentration (IC50) lay in the range of 2.1 to 20 nM.
`O=C1N(Cc2cccc(F)c2)CC(CO)N1c1ccc(-c2cn[nH]c2)cc1` (centres unmarked) [Example 39, 3-(4-(1H-Pyrazol-4-yl)phenyl)-1-(3-fluorobenzyl)-4-(hydroxymethyl)imidazolidin-2-one]: the IC50 fell in the range of 2.1 to 20 nM.
In turn, `COc1cccc(C(C)N2CCN(c3cc(C)c(-c4cn[nH]c4)cn3)C2=O)c1` (single isomer, unassigned) [Example 471, 1-(1-(3-methoxyphenyl)ethyl)-3-(4-methyl-5-(1H-pyrazol-4-yl)pyridin-2-yl)imidazolidin-2-one] gave a half-inhibitory concentration (IC50) of 20.1 to 200 nM.
With `COc1cc(F)cc(C(C)N2CCN(c3ccc(-c4cn[nH]c4)cc3)C2=O)c1` (single isomer, unassigned) [Example 197, 1-(4-(1H-pyrazol-4-yl)-phenyl)-3-(1-(3-fluoro-5-methoxy-phenyl)ethyl) imidazolidin-2-one], the IC50 is < 2 nM.
In the case of `COc1cc(F)ccc1CN1CCN(c2ccc(-c3cn[nH]c3)c(OC)n2)C1=O` [Example 251, 1-(4-fluoro-2-methoxybenzyl)-3-(6-methoxy-5-(1H-pyrazol-4-yl)pyridin-2-yl)imidazolidin-2-one], the IC50 was 20.1 to 200 nM.
Next, `COc1cccc(C(CO)N2CCN(c3ccc(-c4cn[nH]c4)c(C)n3)C2=O)c1` (single isomer, unassigned) [Example 160, 1-(2-hydroxy-1-(3-methoxy-phenyl)ethyl)-3-(6-methyl-5-(1H-pyrazol-4-yl)pyridin-2-yl)imidazolidin-2-one]: 20.1 to 200 nM.
`Cc1c(F)cccc1Cn1ccn(-c2ccc(-c3cn[nH]c3)cc2)c1=O` [Example 402, 1-(4-(1H-pyrazol-4-yl)phenyl)-3-(3-fluoro-2-methylbenzyl)-1H-imidazol-2(3H)-one] showed a half-maximal inhibitory concentration (IC50) of 2.1 to 20 nM.
`COc1cc(F)cc(CN2CC(=O)N(c3ccc(-c4cn[nH]c4)c(OC)c3)C2=O)c1` [Example 94, 1-(3-fluoro-5-methoxybenzyl)-3-(3-methoxy-4-(1H-pyrazol-4-yl)phenyl)imidazolidine-2,4-dione, TFA] returned a half-maximal inhibitory concentration (IC50) of 20.1 to 200 nM.
Molecule `O=c1n(CCc2ccccc2)ccn1-c1ccc(-c2cn[nH]c2)cc1` [Example 335, 1-(4-(1H-pyrazol-4-yl)phenyl)-3-phenethyl-1H-imidazol-2(3H)-one] came in with an IC50 of 20.1 to 200 nM.
Then `COc1cccc(CN2CCN(c3ccc(-c4ccnc(F)c4)c(OC)n3)C2=O)c1` [Example 319, 1-(2′-fluoro-2-methoxy-[3,4′-bipyridin]-6-yl)-3-(3-methoxybenzyl)imidazolidin-2-one], with 2.1 to 20 nM; and `O=C1CN(Cc2cccc(F)c2)C(=O)N1c1ccc(-c2cn[nH]c2)cc1` [Example 81, 3-(4-(1H-pyrazol-4-yl)phenyl)-1-(3-fluorobenzyl)imidazolidine-2,4-dione], with 200 to 2000 nM; and `COc1cccc(C(C)n2ccn(-c3ccc(-c4ccnc(N)n4)cc3)c2=O)c1` (single isomer, unassigned) [Example 399, 1-(4-(2-aminopyrimidin-4-yl)phenyl)-3-(1-(3-methoxyphenyl)ethyl)-1H-imidazol-2(3H)-one], with 2.1 to 20 nM.
`COc1nc(-n2ccn(Cc3ccc(F)c(OCC4CC4)c3)c2=O)ccc1-c1cn[nH]c1` [Example 377, 1-(3-(cyclopropylmethoxy)-4-fluorobenzyl)-3-(6-methoxy-5-(1H-pyrazol-4-yl)pyridin-2-yl)-1H-imidazol-2(3H)-one] displayed a 50% inhibitory concentration (IC50) of 2.1 to 20 nM.
Regarding `COc1cccc(C(C)(CO)N2CCN(c3ccc(-c4cn[nH]c4)cc3)C2=O)c1` (single isomer, unassigned) [Example 287, 1-(4-(1H-Pyrazol-4-yl)phenyl)-3-(1-hydroxy-2-(3-methoxyphenyl)propan-2-yl)imidazolidin-2-one], the IC50 is 20.1 to 200 nM.
Take `COc1cccc(C(CO)N2CCN(c3ccc(-c4cn[nH]c4)cn3)C2=O)c1` (single isomer, unassigned) [Example 462, 1-(5-(1H-pyrazol-4-yl)pyridin-2-yl)-3-(2-hydroxy-1-(3-methoxyphenyl)ethyl)imidazolidin-2-one]: the IC50 was 20.1 to 200 nM.
In the case of `COc1cc(CN2CCN(c3ccc(-c4cn[nH]c4)c(C(F)(F)F)c3)C2=O)ccc1F` [Example 283, 1-(4-(1H-pyrazol-4-yl)-3-(trifluoromethyl)phenyl)-3-(4-fluoro-3-methoxybenzyl)imidazolidin-2-one], the half-maximal inhibitory concentration (IC50) fell in the range of 200 to 2000 nM.
Next, `CCc1nc(N2CCN(C(C)c3cc(F)cc(OC)c3)C2=O)ccc1-c1cn[nH]c1` (single isomer, unassigned) [Example 268, 1-(6-ethyl-5-(1H-pyrazol-4-yl)pyridin-2-yl)-3-(1-(3-fluoro-5-methoxyphenyl)ethyl)imidazolidin-2-one]: < 2 nM.
In turn, `COc1cccc(C(C(=O)NCC2CC2)N2CCN(c3ccc(-c4cn[nH]c4)cc3)C2=O)c1` (single isomer, unassigned) [Example 296, 2-(3-(4-(1H-pyrazol-4-yl)phenyl)-2-oxoimidazolidin-1-yl)-N-(cyclopropylmethyl)-2-(3-methoxyphenyl)acetamide] gave an IC50 of 20.1 to 200 nM.
Turning to `CCc1nc(-n2ccn(Cc3ccc(F)c(OC)c3)c2=O)ccc1-c1cn[nH]c1` [Example 171, 1-(6-ethyl-5-(1H-pyrazol-4-yl)pyridin-2-yl)-3-(4-fIuoro-3-methoxy-benzyl)-1H-imidazol-2(3H)-one], the concentration for half-maximal inhibition (IC50) was 20.1 to 200 nM.
Take `CCc1cc(N2CCN(Cc3ccccc3)C2=O)ccc1-c1cn[nH]c1` [Example 26, 1-Benzyl-3-(3-ethyl-4-(1H-pyrazol-4-yl)phenyl)imidazolidin-2-one]: the IC50 is 20.1 to 200 nM.
Next, `CCC1CN(c2ccc(-c3cn[nH]c3)cc2)C(=O)N1Cc1cccc(OC)c1` (centres unmarked) [Example 175, 1-(4-(1H-pyrazol-4-yl)phenyl)-4-ethyl-3-(3-methoxy-benzyl) imidazolidin-2-one]: < 2 nM; `CCc1nc(N2CCN(C(C)c3ccc(F)c(OC)c3)C2=O)ccc1-c1cn[nH]c1` (single isomer, unassigned) [Example 270, 1-(6-ethyl-5-(1H-pyrazol-4-yl)pyridin-2-yl)-3-(1-(4-fluoro-3-methoxyphenyl)ethyl)imidazolidin-2-one]: 2.1 to 20 nM.

The record behind these values is US10123993B2, “Cyclic ureas as inhibitors of rock” (BRISTOL-MYERS SQUIBB COMPANY, priority 2015, dated 2018).
